Assay results published in patent US12150995B2, “IRAK degraders and uses thereof” (Kymera Therapeutics, Inc., priority 2020, dated 2024).

Target: T1, IRAK4 (Homo sapiens, UniProt Q9NWZ3)
T1 construct: endogenous in cells; host or cells: OCI-LY10
T1 sequence (Q9NWZ3 1-460): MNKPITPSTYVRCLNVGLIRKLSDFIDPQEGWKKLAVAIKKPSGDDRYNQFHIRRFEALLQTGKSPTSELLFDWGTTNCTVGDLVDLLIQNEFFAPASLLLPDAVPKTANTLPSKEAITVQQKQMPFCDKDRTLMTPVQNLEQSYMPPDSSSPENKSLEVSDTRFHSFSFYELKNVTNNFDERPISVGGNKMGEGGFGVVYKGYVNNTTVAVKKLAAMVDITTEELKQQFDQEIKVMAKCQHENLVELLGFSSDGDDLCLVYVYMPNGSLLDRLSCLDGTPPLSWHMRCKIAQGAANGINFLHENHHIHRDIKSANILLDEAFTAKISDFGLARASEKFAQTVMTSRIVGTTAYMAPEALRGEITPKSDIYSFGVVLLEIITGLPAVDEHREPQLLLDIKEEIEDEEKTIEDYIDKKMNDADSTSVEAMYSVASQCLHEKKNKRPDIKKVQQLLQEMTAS
Assay: IRAK4 MSD Degradation in OCI-LY10
Format: cell-based
Details: OCI-LY10 cells, Meso Scale Discovery, incubated 4 to 24 hours
Outline: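 OCI-LY10 cells (300,000/well) exposed to an 8-point 1:3 series from a top concentration of 1 to 10 μM for 4 to 24 h at 37 °C. IRAK4 remaining in RIPA lysates quantified by MSD sandwich immunoassay; DC50 from a three-parameter logistic fit.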

| DC50 [nM] | SMILES |
| --- | --- |
| < 10 | Cn1c(=O)n(C2CCC(=O)NC2=O)c2cccc(C3CC4CCC(C3)N4C[C@H]3CC[C@H](n4cc5cc(NC(=O)c6cccc(C(F)(F)F)n6)ccc5n4)CC3)c21 (single isomer, unassigned) [I-251] |
| < 10 | COc1cc2nn([C@H]3CC[C@H](CN(C)C4CCN(c5ccc6c(N7CCC(=O)NC7=O)cncc6c5)CC4)CC3)cc2cc1NC(=O)c1cccc(C(F)(F)F)n1 [I-320] |
| 10 to 50 | CC(C)(O)c1cc2nc([C@H]3CC[C@H](C(=O)N4CCN(CCCNc5cccc6c5C(=O)N(C5CCC(=O)NC5=O)C6=O)CC4)CC3)sc2cc1NC(=O)c1cccc(C#N)n1 (stereo partly shown) [I-435] |
| 10 to 50 | COc1cc2nn([C@H]3CC[C@H](CN(C)C4CCN(c5cc(C)cc6c5n(C)c(=O)n6C5CCC(=O)NC5=O)CC4)CC3)cc2cc1NC(=O)c1cccc(C(F)(F)F)n1 (stereo partly shown) [I-56] |
| 10 to 50 | COc1ccc2c(c1C1CCN(C[C@H]3CC[C@H](n4cc5cc(NC(=O)c6cccc(C(F)(F)F)n6)ncc5n4)CC3)CC1)n(C)c(=O)n2[C@@H]1CCC(=O)NC1=O (single isomer, unassigned) [I-274] |
| < 10 | COc1cc2nn([C@H]3CC[C@H](CN4CCC(c5c(C)ccc6c5n(C)c(=O)n6C5CCC(=O)NC5=O)CC4)CC3)cc2cc1NC(=O)c1cncc(C(F)(F)F)c1 (stereo partly shown) [I-108] |
| > 200 | Cn1c(=O)n(C2CCC(=O)NC2=O)c2ccc(C3CCN(C[C@H]4CC[C@H](n5cc6cc(NC(=O)c7cccc(C(F)(F)F)n7)ncc6n5)CC4)CC3)c(Cl)c21 (stereo partly shown) [I-178] |
| 50 to 100 | Cn1c(=O)n(C2CCC(=O)NC2=O)c2ccc(Cl)c(C3CCN(C[C@H]4C[C@H](n5cc6cc(NC(=O)c7cccc(C(F)(F)F)n7)c(Cl)cc6n5)C4)CC3)c21 (stereo partly shown) [I-144] |
| < 10 | Cn1c(=O)n(C2CCC(=O)NC2=O)c2cccc(C3CCN(C[C@H]4CC[C@H](n5cc6cc(NC(=O)c7cccc(C(F)(F)F)n7)ncc6n5)CC4)CC3)c21 (stereo partly shown) [I-62] |
| > 200 | CN(C[C@H]1CC[C@H](n2cc3cc(NC(=O)c4cccc(C(F)(F)F)n4)ccc3n2)CC1)C1CCN(c2cccc3c(N4CCC(=O)NC4=O)cncc23)CC1 [I-98] |
| < 10 | Cn1c(=O)n(C2CCC(=O)NC2=O)c2cccc(N3C[C@@H]4C[C@H]3CN4C[C@H]3CC[C@H](n4cc5cc(NC(=O)c6cccc(C(F)(F)F)n6)c(C(C)(C)O)cc5n4)CC3)c21 (stereo partly shown) [I-225] |
| 10 to 50 | CC(C)(O)c1cc2nc([C@H]3CC[C@H](CN4CC5(CC(CCNc6cccc7c6C(=O)N(C6CCC(=O)NC6=O)C7=O)C5)C4)CC3)sc2cc1NC(=O)c1cncc(F)c1 (stereo partly shown) [I-478] |
| < 10 | COc1cc2nn([C@H]3CC[C@H](CN4CCC(c5cccc6c5n(C)c(=O)n6C5CCC(=O)NC5=O)CC4(C)C)CC3)cc2cc1NC(=O)c1cccc(C(F)(F)F)n1 (stereo partly shown) [I-424] |
